{"source": "patent US11897918B2", "about": "“Compositions and methods to increase production” (priority 2014, dated 2024)", "key": {"[1]": {"tested_on": "influenza in MDCK 33016PF cells", "type": "cell-based", "settings": "MEV plus BYF"}, "cellular cholesterol": {"tested_on": "cellular cholesterol", "experiment": "Total cellular cholesterol (Amplex Red)", "type": "cell-based", "description": "Possible effects of BYF589 as well as various enzyme inhibitors of the pathway on the cell viability and total cellular cholesterol levels were examined. Tested samples included DMSO, BYF589 (1 μM), MEV (100 μM), FTI (0.5 μM), ZA (1 μM) and GTI (0.5 μM).\nFree cholesterol is oxidized by cholesterol oxidase to form a cholesterol ketone and H2O2, which then reacts with Amplex Red+HRP to produce the fluorescent product resorufin."}, "MDCK 33016PF cells": {"tested_on": "MDCK 33016PF cells", "settings": "24 hours; BYF589 1 μM, MEV 100 μM, FTI 0.5 μM, ZA 1 μM, GTI 0.5 μM"}, "influenza H3N2 virus": {"tested_on": "influenza H3N2 virus", "settings": "MOI of 10^−3, 24 hours post infection; cited from earlier work"}, "[2]": {"tested_on": "influenza H3N2 strain IVR-165 (A/Victoria/361/2011)", "type": "cell-based"}, "[3]": {"tested_on": "B/Massachusetts/2/2012 (low-expressing)", "experiment": "ambr15 mini-bioreactor and shake flask comparison, B strain", "type": "cell-based, influenza B", "settings": "CDM and DM134 media, shake flasks and 15 ml bioreactors", "description": "The two lead compounds were further tested in the commercially available small-scale bioreactor system, ambr15™ (TAP Biosystems). The ambr15 system mimics the characteristics of classical bioreactors at microscale (10-15 ml), controlled by an automated workstation, which enables the rapid evaluation of multiple bioreactor cultures at microscale.\nTo test both lead compounds were tested side-by-side under controlled conditions, with two infection media formulations (DM134 and CDM) and two flu strains, A/Victoria/361/2011 (IVR-165) (high-expressing) and B/Massachusetts/2/2012 (low-expressing). The infection parameters used in the experiment were as follows: seeding density was 1.0×10^6 cells/ml or 2.5×10^6 cells/mL; pH was 7.1+/−0.02 (pH control by dual control with 0.05N NaOH and CO2 gas); DO was 50% (range 50-80%), controlled by O2 gas; agitation was 1000 rpm (local control); temperature was 34.0° C., locally monitored with bioreactor controller probe; vessel type was Spargeless, extended temperature vessels; and, aeration rate during run was 1 mL/min.\nThe quantification of HA was carried out by ELISA then was subsequently confirmed by HPLC. It was also shown that AFZ077 was able to boost HA yield in the DM134 medium with both low (1×10^6 per mL) and high (2.5×10^6 per mL) infection cell densities in this system. […] Overall, greater enhancement effect seen for low-expressing strains. […]"}, "[4]": {"tested_on": "A/Victoria/361/2011 (IVR-165) (high-expressing)", "experiment": "ambr15 mini-bioreactor and shake flask comparison, A strain", "type": "cell-based, influenza A H3N2", "settings": "CDM and DM134 media, shake flasks and 15 ml bioreactors; listed as AFZ077"}, "[5]": {"settings": "0 and 60 hr, mass spec"}, "A and B strains": {"tested_on": "A and B strains", "type": "cell-based, influenza", "settings": "DM134 medium, 2.5×10^6 per mL"}, "MDCK cells": {"tested_on": "MDCK cells", "experiment": "Cell viability, VI-CELL trypan blue exclusion", "type": "cell-based", "description": "Cell viability assays were performed using MDCK cells treated with 1 uM sulphonamide or DMSO control. Cell viability was monitored over time up to 60 hrs using a VI-CELL machine (Beckman Coulter)(cell viability measured based on trypan blue exclusion). The sulphonamide analog used herein is not a marketed drug, therefore toxicity was conducted to identify cell viability over the course of incubation at the highest tested concentration of 10 μM and 60 hours of contact. […] At least 91% viability is detected in cells treated with sulphonamide."}, "[6]": {"tested_on": "virus-infected host cell culture", "type": "cell-based, influenza", "settings": "versus control without compound"}, "5HT7 receptor": {"target": "T1, 5HT7 receptor (Canis lupus familiaris, UniProt A0A8I3S709)", "T1 construct": "endogenous in cells; host or cells: MDCK 33016PF suspension cells (inferred)", "T1 sequence (A0A8I3S709 entry or part of it)": "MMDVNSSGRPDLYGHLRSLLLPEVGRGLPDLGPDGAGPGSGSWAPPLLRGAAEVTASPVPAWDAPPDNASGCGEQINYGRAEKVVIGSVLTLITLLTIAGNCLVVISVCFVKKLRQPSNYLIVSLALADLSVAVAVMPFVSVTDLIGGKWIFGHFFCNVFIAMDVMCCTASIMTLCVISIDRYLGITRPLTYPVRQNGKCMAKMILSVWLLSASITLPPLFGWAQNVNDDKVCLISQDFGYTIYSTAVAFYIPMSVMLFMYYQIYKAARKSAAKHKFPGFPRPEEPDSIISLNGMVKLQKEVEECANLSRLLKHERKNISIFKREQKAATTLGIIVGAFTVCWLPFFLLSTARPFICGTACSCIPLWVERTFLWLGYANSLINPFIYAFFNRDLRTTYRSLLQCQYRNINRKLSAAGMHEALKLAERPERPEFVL", "experiment": "Dependence of HA enhancement on 5HT7 receptor activity", "type": "cell-based", "settings": "B/Mass in DM134 media, 65 hrs HA yield by ELISA", "description": "FIG. 15 provides a graph showing that Flu HA yield enhancement by AFZ077 is dependent on decreasing activity of the 5HT7 receptor. Flu B strain (B/Mass) in DM134 media; 65 hrs HA yield by ELISA (μg/ml).\nStudies based on Formula 8 (e.g., Compound E) were expanded to identify potential compounds that may share certain mechanisms of action, as summarized in Table 5 below."}, "B/Massachusetts/02/2012": {"tested_on": "B/Massachusetts/02/2012", "experiment": "Ambr 250 mL bioreactor, B strain", "type": "cell-based, influenza B", "settings": "any of the doses tested, ambr250", "description": "FIG. 13 provides a graph showing HA yields in the B strain tested with BYF589 at concentrations as indicated.\nFIG. 14 provides a graph showing HA yields in the B strain tested with AFZ077 at concentrations as indicated.\nThe results were confirmed using 3 different viruses (a high-, medium-, and poor-expressing strains). […] To confirm these findings in a larger-scale system, TD Ambr™ 250 mL bioreactors were employed. Both of the lead compounds (as well as DMSO alone as negative control, and, no compound/no DMSO as double-negative control) were tested with a high- and low-expressing strains to determine if the observed enhancement in the small-scale cultures can be reproduced in a larger-scale system. The following parameters were used: Spent DM134:Fresh PFM (1:3); Virus Strains were A/Victoria/361/2011 (IVR-165) and B/Massachusetts/02/2012; MOI was 10^−5 for A/Victoria IVR-165 and 10^−4 for B/Massachusetts; ICD: 2.0e6-3.0e6 cells/mL; N-1 Process: 1B (no Medium Exchange); and, Harvest Time was 65-72 hours post-infection. HA yields were measured by two methods: RP-HPLC and HA-ELISA. […] Note that the error bars represent one standard deviation from the mean, to illustrate variability of the HA-ELISA assay between assay repeats."}, "Subtype AH3N2": {"tested_on": "Subtype AH3N2", "experiment": "SAR study of analogues, HA-ELISA", "settings": "0.05 μM, FIG. 7"}, "Subtype A/Texas X223A": {"tested_on": "Subtype A/Texas X223A", "type": "cell-based, influenza A", "settings": "0.05 μM"}}, "note": "“Also recorded” adds a separate entry of the source."}
{"compound": "CC(O)(CCO)CC(=O)O", "note": "(centres unmarked) [MEV, Mevalonate]", "values": [{"measurement": "HA yield enhancement, in combination with BYF", "setting": "[1]", "result": "reduces HA yield enhancement"}, {"measurement": "cellular cholesterol levels, in combination with BYF", "setting": "cellular cholesterol; MEV plus BYF", "result": "does not replenish cellular cholesterol levels"}, {"measurement": "cellular cholesterol levels, compound alone", "setting": "cellular cholesterol; normalized to DMSO", "result": "no effect on cellular cholesterol levels"}, {"measurement": "effect on cell viability", "setting": "MDCK 33016PF cells", "result": "no negative effect on cell viability"}]}
{"compound": "COc1ccc(C2=N[C@@H](c3ccc(Cl)cc3)[C@@H](c3ccc(Cl)cc3)N2C(=O)N2CCNC(=O)C2)c(OC(C)C)c1", "note": "[Nutlin-3]", "values": [{"measurement": "copies of viral genome in the supernatant compared with control", "setting": "influenza H3N2 virus", "result": "up to nineteen times more copies of viral genome"}]}
{"compound": "Cc1cccc(S(=O)(=O)N2CCC[C@@H]2CCN2CCC(C)CC2)c1", "note": "[Compound E]", "values": [{"measurement": "HA yield before the decrease (earlier addition)", "setting": "[2]", "result": "about 20 μg/ml"}, {"measurement": "HA yield, compound added 6 hours post infection", "setting": "[2]", "result": "about 5 μg/ml"}, {"measurement": "HA yield enhancement, low-expressing B strain", "setting": "[3]", "result": "boosts HA yield"}, {"measurement": "HA yield enhancement, high-expressing A strain", "setting": "[4]", "result": "much greater enhancement in HA yield; also recorded: Only AFZ077 enhanced yield"}, {"measurement": "loss of compound in media or media+MDCK cells", "setting": "[5]", "result": "No loss of compounds was observed"}, {"measurement": "HA yield over original yields, high ICD format with AFZ treatment", "setting": "A and B strains", "result": "~4", "unit": "fold"}, {"measurement": "impact on cell viability", "setting": "MDCK cells; monitored up to 60 hrs", "result": "Neither sulphonamide nor pitavastatin had a negative impact on cell viability"}, {"measurement": "cell viability", "setting": "MDCK cells; up to 10 μM and 60 hours of contact", "result": "At least 91%"}, {"measurement": "increase in HA yield at 24 hours, compound added at T=2, 4", "setting": "[6]", "result": "approximately 4 fold"}, {"measurement": "increase in HA yield at 24 hours, compound added at T=6", "setting": "[6]", "result": "no significant increase"}, {"measurement": "increase in HA yield at 24 hours, compound added at time of infection (T=0)", "setting": "[6]", "result": "approximately 4 fold"}, {"measurement": "HA enhancing effect in presence of serotonin (5HT)", "setting": "5HT7 receptor", "result": "can be abrogated by adding serotonin (5HT)"}, {"measurement": "increase in HA yield over the controls", "setting": "B/Massachusetts/02/2012", "result": "no significant increase in HA yield"}]}
{"compound": "CC(C)n1c(/C=C/[C@@H](O)C[C@@H](O)CC(=O)O)c(-c2ccc(F)cc2)c2ccccc21", "note": "[fluvastatin, (3R, 5S, 6E)-7-[3-(4-fluorophenyl)-1-(propan-2-yl)-1H-indol-2-yl]-3,4-dihydroxyhept-6-enoic acid]", "values": [{"measurement": "HA yield compared with pitavastatin", "setting": "Subtype AH3N2", "result": "performed even better than pitavastatin"}]}
{"compound": "CC(C)c1nc(N(C)S(C)(=O)=O)nc(-c2ccc(F)cc2)c1/C=C/[C@@H](O)C[C@@H](O)CC(=O)O", "note": "[Rosuvastatin, bis[(E)-7-[4-(4-fluorophenyl)-6-isopropyl-2-[methyl(methylsulfonyl)amino]pyrimidin-5-yl](3R,5S)-3,5-dihydroxyhept-6-enoic acid]]", "values": [{"measurement": "HA yield compared with other commercially available statins", "setting": "Subtype A/Texas X223A", "result": "did not produce the yield potential of comparative statins"}]}
